In patent US20120100230A1, “Systems, Devices, and/or Methods for Managing Crops” (DHARMA IP, LLC, priority 2010, published 2012):

Assay: Solubility of beta-cyclodextrin in water containing ClO2 (slurry test)
Assay type: physicochemical
Settings: 100 g slurry, 5% beta-cyclodextrin (w/w) in 8000 ppm ClO2 vs ultrapure water, 200 rpm, 3 days
Procedure: However indirect evidence for the complex has been observed. Beta-cyclodextrin has a known solubility in water. If the water contains a guest substance that produces a cyclodextrin complex more soluble than the cyclodextrin alone, more of the cyclodextrin will dissolve into water containing that guest than into plain water. This enhanced solubility has been observed for beta-cyclodextrin in water containing ClO2. Two separate 100 g slurries of beta-cyclodextrin solutions were prepared. […] Both slurries were mixed at 200 rpm for 3 days, at which time the undissolved beta-cyclodextrin was isolated from both solutions and dried for 2 days in a desiccator. […] It is believed, by extension, that ClO2 might form complexes with gamma-cyclodextrin and/or chemically derivatized versions of the natural (alpha- (“α”), beta- (“β”), and gamma- (“γ”)) cyclodextrins. In the case of beta- and/or gamma-cyclodextrin and/or other cyclodextrins having internal cavities larger than that of alpha-cyclodextrin, it might be that the complex(es) formed with ClO2 will incorporate numbers of ClO2 molecules greater than one per cyclodextrin molecule.

weight of dried undissolved beta-cyclodextrin from ClO2 containing slurry less than the control slurry: 0.32 g
SMILES: OC[C@H]1O[C@@H]2O[C@H]3[C@H](O)[C@@H](O)[C@@H](O[C@H]4[C@H](O)[C@@H](O)[C@@H](O[C@H]5[C@H](O)[C@@H](O)[C@@H](O[C@H]6[C@H](O)[C@@H](O)[C@@H](O[C@H]7[C@H](O)[C@@H](O)[C@@H](O[C@H]8[C@H](O)[C@@H](O)[C@@H](O[C@H]1[C@H](O)[C@H]2O)O[C@@H]8CO)O[C@@H]7CO)O[C@@H]6CO)O[C@@H]5CO)O[C@@H]4CO)O[C@@H]3CO [beta-cyclodextrin]
